From patent US12404283B2, “c-MYC mRNA translation modulators and uses thereof in the treatment of cancer” (Anima Biotech Inc., priority 2022, dated 2025)

tested on: c-Myc; test: c-Myc immunofluorescence assay; format: cell-based, human; settings: A549 cells, 24 hours treatment, anti-c-Myc immunofluorescence
Outline: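 High-content imaging (20×) of PFA-fixed A549 cells immunostained for c-Myc with DAPI nuclei, after 24 h compound treatment at increasing concentrations. Per-cell c-Myc signal in identified cell regions was plotted against dose and fitted by logistic regression to give EC50.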

Structure (SMILES)	Myc Efficacy (−LogEC50)
CNC(=O)c1ccc(-c2cn3c(n2)sc2cc(C(=O)N[C@H]4CCCCN(C)C4=O)ccc23)cc1 [compound 228, (S)-N-(1-methyl-2-oxoazepan-3-yl)-2-(4-(methylcarbamoyl)phenyl) benzo[d]imidazo[2,1-b]thiazole-7-carboxamide]	+ (+ >3 and <5)
CNCCCCNC(=O)c1ccc2c(c1)sc1nc(-c3ccc(C(=O)NC)cc3)cn12 [compound 229, N-(4-(methylamino)butyl)-2-(4-(methylcarbamoyl)phenyl) benzo[d]imidazo[2,1-b]thiazole-7-carboxamide]	+ (+ >3 and <5)
CNC(=O)c1ccc(-c2cn3c(n2)sc2cc(C(=O)NCC4CCC5(CCNCC5)O4)ccc23)cc1 (stereo not shown) [compound 230, N-((1-oxa-8-azaspiro[4.5]decan-2-yl)methyl)-2-(4-(methylcarbamoyl)phenyl) benzo[d]imidazo[2,1-b]thiazole-7-carboxamide]	+ (+ >3 and <5)
CNC(=O)c1ccc(-c2cn3c(n2)sc2cc(C(=O)N[C@H]4CN5CCC4CC5)ccc23)cc1 [compound 231, (R)-2-(4-(methylcarbamoyl)phenyl)-N-(quinuelidin-3-yl)benzo[d]imidazo[2,1-b]thiazole-7-carboxamide]	− (− ≤3)
CNC(=O)c1ccc(-c2cn3c(n2)sc2cc(C(=O)NCCCn4nc(C)cc4C)ccc23)cc1 [compound 232, N-(3-(3,5-dimethyl-1H-pyrazol-1-yl)propyl)-2-(4-(methylcarbamoyl)phenyl) benzo[d]imidazo[2,1-b]thiazole-7-carboxamide]	− (− ≤3)
CCN1CCC(CNC(=O)c2ccc3c(c2)sc2nc(-c4ccc(C(=O)NC)cc4)cn23)C1 (stereo not shown) [compound 233, N-((1-ethylpyrrolidin-3-yl)methyl)-2-(4-(methylcarbamoyl)phenyl) benzo[d]imidazo[2,1-b]thiazole-7-carboxamide]	− (− ≤3)
CNC(=O)c1ccc(-c2cn3c(n2)sc2cc(C(=O)NC(C)C4CCOCC4)ccc23)cc1 (stereo not shown) [compound 234, 2-(4-(methylcarbamoyl)phenyl)-N-(1-(tetrahydro-2H-pyran-4-yl)ethyl)benzo[d]imidazo [2,1-b]thiazole-7-carboxamide]	+ (+ >3 and <5)
CNC(=O)c1ccc(-c2cn3c(n2)sc2cc(C(=O)NCCCn4ccnc4)ccc23)cc1 [compound 235, N-(3-(1H-imidazol-1-yl)propyl)-2-(4-(methylcarbamoyl)phenyl) benzo[d]imidazo[2,1-b]thiazole-7-carboxamide]	+ (+ >3 and <5)
CNC(=O)c1ccc(-c2cn3c(n2)sc2cc(C(=O)NC4CC(=O)N(C)C4)ccc23)cc1 (stereo not shown) [compound 236, N-(1-methyl-5-oxopyrrolidin-3-yl)-2-(4-(methylcarbamoyl)phenyl) benzo[d]imidazo[2,1-b]thiazole-7-carboxamide]	− (− ≤3)
CNC(=O)c1ccc(-c2cn3c(n2)sc2cc(C(=O)NC4(CO)CCOCC4)ccc23)cc1 [compound 237, N-(4-(hydroxymethyl)tetrahydro-2H-pyran-4-yl)-2-(4-(methylcarbamoyl)phenyl) benzo[d]imidazo[2,1-b]thiazole-7-carboxamide]	− (− ≤3)
CNC(=O)c1ccc(-c2cn3c(n2)sc2cc(C(=O)N[C@H]4[C@H]5CN[C@@H]4C5)ccc23)cc1 [compound 238, N-((1R,4R,5S)-2-azabicyclo[2.1.1]hexan-5-(methylcarbamoyl)phenyl) benzo[d]imidazo[2,1-b]thiazole-7-carboxamide]	− (− ≤3)
CNC(=O)c1ccc(-c2cn3c(n2)sc2cc(C(=O)NC4CC4OC)ccc23)cc1 (stereo not shown) [compound 240, N-(2-methoxycyclopropyl)-2-(4-(methylcarbamoyl)phenyl) benzo[d]imidazo[2,1-b] thiazole-7-carboxamide]	+ (+ >3 and <5)
CNC(=O)c1ccc(-c2cn3c(n2)sc2cc(C(=O)NC4CC5(CNC5)C4)ccc23)cc1 [compound 241, 2-(4-(methylcarbamoyl)phenyl)-N-(2-azaspiro[3.3]heptan-6-yl)benzo[d]imidazo[2,1-b] thiazole-7-carboxamide]	+ (+ >3 and <5)
CC[C@H](NC(=O)c1ccc2c(c1)sc1nc(-c3ccc(C(=O)NC)cc3)cn12)c1ccnn1C [compound 242, (S)-N-(1-(1-methyl-1H-pyrazol-5-yl)propyl)-2-(4-(methylcarbamoyl)phenyl) benzo[d]imidazo[2,1-b] thiazole-7-carboxamide]	+ (+ >3 and <5)
CCc1nccn1CCNC(=O)c1ccc2c(c1)sc1nc(-c3ccc(C(=O)NC)cc3)cn12 [compound 243, N-(2-(2-ethyl-1H-imidazol-1-yl)ethyl)-2-(4-(methylcarbamoyl)phenyl) benzo[d]imidazo[2,1-b] thiazole-7-carboxamide]	+ (+ >3 and <5)
CNC(=O)c1ccc(-c2cn3c(n2)sc2cc(C(=O)NCC(C)(C)N4CCOCC4)ccc23)cc1 [compound 244, N-(2-methyl-2-morpholinopropyl)-2-(4-(methylcarbamoyl)phenyl) benzo[d]imidazo[2,1-b] thiazole-7-carboxamide]	− (− ≤3)
CNC(=O)c1ccc(-c2cn3c(n2)sc2cc(C(=O)N[C@H]4C[C@@H](OC)C4)ccc23)cc1 [compound 245, N-((1s,3s)-3-methoxycyclobutyl)-2-(4-(methylcarbamoyl)phenyl) benzo[d]imidazo[2,1-b] thiazole-7-carboxamide]	− (− ≤3)
CNC(=O)c1ccc(-c2cn3c(n2)sc2cc(C(=O)N[C@H]4C[C@@H](NC)C4)ccc23)cc1 [compound 246, N-((1s,3s)-3-(methylamino)cyclobutyl)-2-(4-(methylcarbamoyl)phenyl) benzo[d]imidazo[2,1-b] thiazole-7-carboxamide]	+ (+ >3 and <5)
CNC(=O)c1ccc(-c2cn3c(n2)sc2cc(C(=O)N[C@H]4C[C@H](NC)C4)ccc23)cc1 [compound 247, N-((1r,3r)-3-(methylamino)cyclobutyl)-2-(4-(methylcarbamoyl)phenyl) benzo[d]imidazo[2,1-b] thiazole-7-carboxamide]	− (− ≤3)
Cc1cccc(-c2cn3c(n2)sc2cc(C(=O)NCCCN4CC5CC4CN5C)ccc23)c1 (stereo not shown) [compound 248, N-(3-(5-methyl-2,5-diazabicyclo[2.2.1]heptan-2-yl)propyl)-2-(m-tolyl)benzo[d]imidazo[2,1-b]thiazole-7-carboxamide]	+ (+ >3 and <5)
CNC(=O)c1ccc(-c2cn3c(n2)sc2cc(C(=O)NCCCN4CC5CC4CN5C)ccc23)cc1 (stereo not shown) [compound 249, N-(3-(5-methyl-2,5-diazabicyclo[2.2.1]heptan-2-yl)propyl)-2-(4-(methylcarbamoyl)phenyl) benzo[d]imidazo[2,1-b]thiazole-7-carboxamide]	− (− ≤3)
CNC(=O)c1ccc(-c2cn3c(n2)sc2cc(C(=O)N4CCN(CC(N)=O)CC4)ccc23)cc1 [compound 250, 4-(7-(4-(2-amino-2-oxoethyl)piperazine-1-carbonyl)benzo[d]imidazo [2,1-b]thiazol-2-yl)-N-methylbenzamide]	+ (+ >3 and <5)
